For experiment [1], the system named is Phosphorylated Ribosomal Protein S6 (RPS6) in THP-1 cells. As to the kind of experiment: THP-1 RPS6 ELISA assay. Type of experiment: cell-based, Human. To be noted: serum starved, 2 h compound, 10 nM MCP-1 for 15 min, phospho-RPS6 ELISA, read-out: PI3Kγ_THP1_RPS6_ELISA IC50. The procedure:
Example A. THP-1 RPS6 ELISA Assay
To measure the Phosphorylated Ribosomal Protein S6 (RPS6) in cell lysates, THP-1 cells (Human Acute Monocytic Leukemia) are purchased from ATCC (Manassas, Va.) and maintained in RPMI with 10% FBS (Gibco/Life Technologies, Carlsbad, Calif.). For the assay, THP-1 cells are serum starved overnight in RPMI, then plated in RPMI (2×10^5 cells/well in 90 μL) into 96-well flat-bottom tissue culture treated plates (Corning, Corning, N.Y.), in the presence or absence of a concentration range of test compounds. Covered plates are incubated for 2 hours at 37° C., 5% CO2 then treated with or without 10 nM MCP-1 (MYBioSource, San Diego, Calif.) for 15 minutes at 37° C., 5% CO2. Plates are centrifuged at 1600 RPM and supernatants are removed. Cells are lysed in Lysis Buffer (Cell Signaling, Danvers, Mass.) with Protease Inhibitor (Calbiochem/EMD, Germany), PMSF (Sigma, St Louis Mo.), HALTS (Thermo Fisher, Rockford, Ill.) for 30 min on wet ice. Cell lysates are frozen at −80° C. before testing. The lysates are tested in the Human/Mouse/Rat Phospho-RPS6 ELISA (R&D Systems, Inc. Minn, Minn.). The plate is measured using a microplate reader (SpectraMax M5—Molecular Devices, LLC Sunnyvale, Calif.) set to 450 nm with a wavelength correction of 540. IC50 determination is performed by fitting the curve of inhibitor percent inhibition versus the log of the inhibitor concentration using the GraphPad Prism 5.0 software.
(ELISA stands for enzyme-linked immunosorbent assay.)

Experiment [2] has as its target PI3Kγ (p110γ) Recombinant Human Protein (Homo sapiens (Human), UniProt P48736). As to the kind of experiment: PI3K-γ scintillation proximity assay. To be noted: 20 μM PIP2, 2 μM ATP, 13 nM PI3Kγ, 120 min, room temperature. Type of experiment: biochemical. The procedure, abridged:
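Radiometric SPA in 20 mM MOPS pH 6.7, 10 mM MgCl2, 5 mM DTT, 0.03% CHAPS, 2% DMSO. Stopped with EDTA and WGA SPA beads for scintillation counting. IC50 fitted from % solvent-control activity versus log concentration.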

For experiment [3], the target named is PI3Kδ (p110δ/p85α) Recombinant Human Protein (Homo sapiens (Human), UniProt O00329). The experiment in a line: PI3Kδ scintillation proximity assay. To be noted: 20 μM PIP2, 2 μM ATP, 3.4 nM PI3Kδ, 120 min, room temperature; read-out: PI3Kδ IC50. Type of experiment: biochemical. The procedure, abridged:
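Recombinant human p110δ/p85α was run at room temperature in 20 mM MOPS pH 6.7, 10 mM MgCl2, 5 mM DTT, 0.03% CHAPS, 2% DMSO. Substrates were 20 µM PIP2 and 2 µM ATP with [γ-33P]ATP. Product was captured overnight on WGA SPA beads and counted by scintillation; IC50 fitted from percent of solvent control versus log concentration.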

[4] abbreviates: Homo sapiens, THP-1, THP-1 cells.

Counter-ions that a name gives are not always drawn. Like-named read-outs stand apart in the source and are kept apart here.

PI3Kγ (p110γ) Recombinant Human Protein, sequence (P48736 whole entry): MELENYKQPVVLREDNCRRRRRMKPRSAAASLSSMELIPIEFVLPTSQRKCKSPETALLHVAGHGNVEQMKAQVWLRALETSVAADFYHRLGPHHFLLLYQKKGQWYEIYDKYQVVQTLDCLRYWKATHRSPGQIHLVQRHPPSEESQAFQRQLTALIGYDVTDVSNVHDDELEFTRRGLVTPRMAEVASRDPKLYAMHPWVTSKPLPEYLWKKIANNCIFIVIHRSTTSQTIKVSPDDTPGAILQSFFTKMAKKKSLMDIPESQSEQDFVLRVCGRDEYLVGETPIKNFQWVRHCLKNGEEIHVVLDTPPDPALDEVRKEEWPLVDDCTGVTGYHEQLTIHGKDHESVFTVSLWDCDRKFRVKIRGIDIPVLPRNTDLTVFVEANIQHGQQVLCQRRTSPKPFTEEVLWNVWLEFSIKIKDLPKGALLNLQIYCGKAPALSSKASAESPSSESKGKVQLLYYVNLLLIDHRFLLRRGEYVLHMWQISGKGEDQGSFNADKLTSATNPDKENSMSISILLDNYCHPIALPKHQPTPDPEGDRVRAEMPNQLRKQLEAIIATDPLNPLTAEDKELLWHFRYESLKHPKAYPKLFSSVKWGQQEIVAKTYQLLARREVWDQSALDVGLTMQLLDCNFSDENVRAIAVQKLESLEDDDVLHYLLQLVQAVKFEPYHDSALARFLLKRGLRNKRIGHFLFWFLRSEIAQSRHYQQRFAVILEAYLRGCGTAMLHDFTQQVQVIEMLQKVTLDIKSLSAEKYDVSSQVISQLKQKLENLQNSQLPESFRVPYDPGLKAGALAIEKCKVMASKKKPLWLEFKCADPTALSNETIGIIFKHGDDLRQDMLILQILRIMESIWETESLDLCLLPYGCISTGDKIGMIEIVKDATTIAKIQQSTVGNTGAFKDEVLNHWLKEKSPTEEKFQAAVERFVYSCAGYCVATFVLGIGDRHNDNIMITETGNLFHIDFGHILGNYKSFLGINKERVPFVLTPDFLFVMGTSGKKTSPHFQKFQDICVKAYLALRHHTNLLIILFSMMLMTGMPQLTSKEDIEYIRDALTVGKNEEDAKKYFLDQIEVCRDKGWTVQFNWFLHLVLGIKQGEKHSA
PI3Kδ (p110δ/p85α) Recombinant Human Protein, sequence (O00329 whole entry): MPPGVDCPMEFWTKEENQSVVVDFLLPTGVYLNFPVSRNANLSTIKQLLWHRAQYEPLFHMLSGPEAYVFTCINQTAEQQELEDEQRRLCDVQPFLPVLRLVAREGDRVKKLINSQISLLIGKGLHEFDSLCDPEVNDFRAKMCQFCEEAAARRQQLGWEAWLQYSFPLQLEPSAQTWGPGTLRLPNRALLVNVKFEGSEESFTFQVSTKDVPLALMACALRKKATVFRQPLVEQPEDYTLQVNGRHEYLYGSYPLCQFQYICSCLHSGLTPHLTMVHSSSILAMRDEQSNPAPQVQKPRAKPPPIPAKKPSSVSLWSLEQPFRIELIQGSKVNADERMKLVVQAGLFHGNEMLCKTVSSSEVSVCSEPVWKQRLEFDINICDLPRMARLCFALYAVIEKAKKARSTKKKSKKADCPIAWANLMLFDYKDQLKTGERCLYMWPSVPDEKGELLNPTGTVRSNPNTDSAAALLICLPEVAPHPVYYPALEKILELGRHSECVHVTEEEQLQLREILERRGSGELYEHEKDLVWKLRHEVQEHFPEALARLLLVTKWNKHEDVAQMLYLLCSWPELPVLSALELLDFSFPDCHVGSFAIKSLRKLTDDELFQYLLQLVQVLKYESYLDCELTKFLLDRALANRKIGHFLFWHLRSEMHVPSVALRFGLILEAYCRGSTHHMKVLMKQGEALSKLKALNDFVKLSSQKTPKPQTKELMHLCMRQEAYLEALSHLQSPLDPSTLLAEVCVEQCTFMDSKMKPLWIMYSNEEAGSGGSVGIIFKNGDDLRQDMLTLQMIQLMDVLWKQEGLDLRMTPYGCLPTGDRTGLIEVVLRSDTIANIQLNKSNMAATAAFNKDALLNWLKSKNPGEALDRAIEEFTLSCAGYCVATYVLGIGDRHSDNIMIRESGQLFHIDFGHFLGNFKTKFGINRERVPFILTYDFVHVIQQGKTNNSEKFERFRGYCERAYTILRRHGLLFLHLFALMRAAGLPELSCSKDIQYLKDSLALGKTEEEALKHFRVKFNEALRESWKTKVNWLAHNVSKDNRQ
PI3Kδ (p110δ/p85α) Recombinant Human Protein, sequence (P27986 whole entry partner): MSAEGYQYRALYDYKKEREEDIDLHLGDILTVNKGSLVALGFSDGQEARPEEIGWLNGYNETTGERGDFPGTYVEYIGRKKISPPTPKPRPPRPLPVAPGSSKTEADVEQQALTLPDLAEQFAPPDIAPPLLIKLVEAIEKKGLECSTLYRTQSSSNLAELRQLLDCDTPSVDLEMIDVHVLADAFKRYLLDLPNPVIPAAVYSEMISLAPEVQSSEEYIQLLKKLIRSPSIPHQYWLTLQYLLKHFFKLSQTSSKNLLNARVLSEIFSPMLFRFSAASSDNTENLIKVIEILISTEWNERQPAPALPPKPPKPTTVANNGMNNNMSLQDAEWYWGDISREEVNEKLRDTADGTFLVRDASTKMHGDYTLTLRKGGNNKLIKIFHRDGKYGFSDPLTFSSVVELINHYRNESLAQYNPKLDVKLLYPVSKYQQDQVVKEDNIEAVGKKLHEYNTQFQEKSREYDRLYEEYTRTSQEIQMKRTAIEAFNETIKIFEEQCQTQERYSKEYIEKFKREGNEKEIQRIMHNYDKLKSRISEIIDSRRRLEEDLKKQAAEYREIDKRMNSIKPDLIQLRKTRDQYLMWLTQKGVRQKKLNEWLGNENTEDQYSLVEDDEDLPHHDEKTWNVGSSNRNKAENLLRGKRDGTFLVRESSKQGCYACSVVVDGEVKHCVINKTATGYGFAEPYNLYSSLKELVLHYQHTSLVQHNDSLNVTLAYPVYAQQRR

For orientation: IC50 means the concentration that inhibits the measured activity by half. On to `Cc1ccc(C(C)(O)C(F)(F)F)cc1-c1cnc2c(N)nc(C(=O)NCC(C)(C)O)cn12` (single isomer, unassigned) [Example 63, 8-amino-N-(2-hydroxy-2-methylpropyl)-3-(2-methyl-5-(1,1,1-trifluoro-2-hydroxypropan-2-yl)phenyl)imidazo[1,2-a]pyrazine-6-carboxamide], for which the values for the IC50 in experiment [1] (THP-1 cells), in experiment [2] and in experiment [3] were 100 to 500 nM, under 100 nM and 100 to 500 nM, respectively.
As for `[2H]C([2H])([2H])n1nccc1-c1cn2c(-c3cc(C(O)(CO)C(F)(F)F)ccc3C)cnc2c(N)n1` (single isomer, unassigned) [Example 66, 2-(3-(8-Amino-6-(1-(methyl-d3)-1H-pyrazol-5-yl)imidazo[1,2-a]pyrazin-3-yl)-4-methylphenyl)-3,3,3-trifluoropropane-1,2-diol], the 50% inhibitory concentration (IC50) in experiment [1] (setting [4]), in experiment [2] and in experiment [3] was under 100 nM each time.
Turning to `Cc1ccc(C(O)(CO)C(F)(F)F)cc1-c1cnc2c(N)nc(C(F)(F)F)cn12` (single isomer, unassigned) [Example 72, 2-(3-(8-Amino-6-(trifluoromethyl)imidazo[1,2-a]pyrazin-3-yl)-4-methylphenyl)-3,3,3-trifluoropropane-1,2-diol], the IC50 in experiment [1] (THP-1 cells) was under 100 nM; in experiment [2], under 100 nM; in experiment [3], 100 to 500 nM.
Regarding `Cc1ccc(C(O)(CO)C(F)(F)F)cc1-c1cnc2c(N)nc(C(F)(F)F)cn12` (single isomer, unassigned) [Example 73, 2-(3-(8-Amino-6-(trifluoromethyl)imidazo[1,2-a]pyrazin-3-yl)-4-methylphenyl)-3,3,3-trifluoropropane-1,2-diol], the IC50 in experiment [1] (THP-1 cells) was 500 to 1000 nM; in experiment [2], under 100 nM; in experiment [3] it was 100 to 500 nM.
For the compound `CCOC(=O)C1CC1c1cn2c(-c3cc(C(C)(O)C(F)F)ccc3C)cnc2c(N)n1` (single isomer, unassigned) [Example 75, Ethyl 2-(8-amino-3-(5-(1,1-difluoro-2-hydroxypropan-2-yl)-2-methylphenyl)imidazo[1,2-a]pyrazin-6-yl)cyclopropane-1-carboxylate trifluoroacetate salt], the IC50 in experiment [1] (setting [4]) is 100 to 500 nM; in experiment [2], under 100 nM; in experiment [3], 100 to 500 nM.
As to `Cc1ccc(C(C)(O)C(F)F)cc1-c1cnc2c(N)nc(C3CC3CO)cn12` (single isomer, unassigned) [Example 79, 2-(3-(8-Amino-6-(2-(hydroxymethyl)cyclopropyl)imidazo[1,2-a]pyrazin-3-yl)-4-methylphenyl)-1,1-difluoropropan-2-ol], the half-maximal inhibitory concentration (IC50) in experiment [1] (setting [4]) was 100 to 500 nM; in experiment [2], under 100 nM; in experiment [3], 500 to 2000 nM.
Taken in the same sequence, the figures for `Cc1ccc(C(C)(O)C(F)(F)F)cc1-c1cnc2c(N)nc(C(=O)N[C@@H](B(O)O)C3CCC3)cn12` (single isomer, unassigned) [Example 117] were over 1000 nM, under 100 nM and 500 to 2000 nM.
Taken in the same sequence, the figures for `Cc1ccc(C(C)(O)C(F)F)cc1-c1cnc2c(N)nc(-c3ccc(C(C)O)nc3)cn12` (single isomer, unassigned) [Example 136, 2-(3-(8-Amino-6-(6-(1-hydroxyethyl)pyridin-3-yl)imidazo[1,2-a]pyrazin-3-yl)-4-methylphenyl)-1,1-difluoropropan-2-ol] were under 100 nM, under 100 nM and 100 to 500 nM.
Taken in the same sequence, the figures for `Cc1ccc(C(C)(O)C(F)(F)F)cc1-c1cnc2c(N)nc(C3CC(CO)C3)cn12` (single isomer, unassigned) [Example 207, 2-(3-(8-amino-6-(3-(hydroxymethyl)cyclobutyl)imidazo[1,2-a]pyrazin-3-yl)-4-methylphenyl)-1,1,1-trifluoropropan-2-ol trifluoroacetate] were under 100 nM, under 100 nM and under 100 nM.
Consider `Cc1ccc(C(C)(O)C(F)(F)F)cc1-c1cnc2c(N)nc(C3CC(CO)C3)cn12` (single isomer, unassigned) [Example 208, 2-(3-(8-amino-6-(3-(hydroxymethyl)cyclobutyl)imidazo[1,2-a]pyrazin-3-yl)-4-methylphenyl)-1,1,1-trifluoropropan-2-ol trifluoroacetate], for which the 50% inhibitory concentration (IC50) in experiment [1] (THP-1 cells), in experiment [2] and in experiment [3] was under 100 nM throughout.
On to `[2H]C([2H])([2H])c1ccc(C(O)(C(C)O)C(F)(F)F)cc1-c1cnc2c(N)nc(C(F)(F)F)cn12` (single isomer, unassigned) [Example 233, 2-(3-(8-Amino-6-(trifluoromethyl)imidazo[1,2-a]pyrazin-3-yl)-4-(methyl-d3)phenyl)-1,1,1-trifluorobutane-2,3-diol trifluoroacetate salt], for which the IC50 was 100 to 500 nM in experiment [1] (setting [4]), under 100 nM in experiment [2] and 100 to 500 nM in experiment [3].
As for `[2H]C([2H])([2H])c1ccc(C(C)(O)C(F)(F)F)cc1-c1cnc2c(N)nc(C(C)(C)O)cn12` (single isomer, unassigned) [Example 253, 2-(3-(8-Amino-6-(2-hydroxypropan-2-yl)imidazo[1,2-a]pyrazin-3-yl)-4-(methyl-d3)phenyl)-1,1,1-trifluoropropan-2-ol trifluoroacetate salt], the figures for the IC50 in experiment [1] (setting [4]), in experiment [2] and in experiment [3] were 100 to 500 nM, under 100 nM and 100 to 500 nM, respectively.
On to `Cc1ccc(C(C)(O)C(F)(F)F)cc1-c1cnc2c(N)nc(C(F)(F)F)nn12` (stereo not drawn) [Example 1, 2-(3-(4-Amino-2-(trifluoromethyl)imidazo[2,1-f][1,2,4]triazin-7-yl)-4-methylphenyl)-1,1,1-trifluoropropan-2-ol], for which the IC50 in experiment [1] (setting [4]) is 100 to 500 nM; in experiment [2], under 100 nM; in experiment [3], 100 to 500 nM.
Regarding `Cc1nc(N)c2ncc(-c3cc(C(C)(O)C(F)(F)F)ccc3C)n2n1` (stereo not drawn) [Example 2, 2-(3-(4-Amino-2-methylimidazo[2,1-f][1,2,4]triazin-7-yl)-4-methylphenyl)-1,1,1-trifluoropropan-2-ol], the IC50 in experiment [1] (setting [4]) was 500 to 1000 nM; in experiment [2], under 100 nM; in experiment [3], 500 to 2000 nM.
Turning to `Cc1ccc(C(C)(O)C(F)(F)F)cc1-c1cnc2c(N)nc(C(F)(F)F)cn12` (stereo not drawn) [Example 4, 2-(3-(8-Amino-6-(trifluoromethyl)imidazo[1,2-a]pyrazin-3-yl)-4-methylphenyl)-1,1,1-trifluoropropan-2-ol], the IC50 in experiment [1] (setting [4]) was 100 to 500 nM; in experiment [2], under 100 nM; in experiment [3], 100 to 500 nM.
For `COC(=O)c1cn2c(-c3cc(C(C)(O)C(F)(F)F)ccc3C)cnc2c(N)n1` (stereo not drawn) [Example 8, Methyl 8-amino-3-(2-methyl-5-(1,1,1-trifluoro-2-hydroxypropan-2-yl)phenyl)imidazo[1,2-a]pyrazine-6-carboxylate], the IC50 is 500 to 1000 nM in experiment [1] (setting [4]), under 100 nM in experiment [2] and 500 to 2000 nM in experiment [3].
As for `CNC(=O)c1cn2c(-c3cc(C(C)(O)C(F)(F)F)ccc3C)cnc2c(N)n1` (stereo not drawn) [Example 9, 8-Amino-N-methyl-3-(2-methyl-5-(1,1,1-trifluoro-2-hydroxypropan-2-yl)phenyl)imidazo[1,2-a]pyrazine-6-carboxamide], the IC50 in experiment [1] (setting [4]) was 100 to 500 nM; in experiment [2], under 100 nM; in experiment [3], 100 to 500 nM.
`Cc1ccc(C(C)(O)C(F)(F)F)cc1-c1cnc2c(N)nc(-c3ccnc(CO)c3)cn12` (stereo not drawn) [Example 10, 2-(3-(8-Amino-6-(2-(hydroxymethyl)pyridin-4-yl)imidazo[1,2-a]pyrazin-3-yl)-4-methylphenyl)-1,1,1-trifluoropropan-2-ol]: the IC50 is 100 to 500 nM in experiment [1] (setting [4]), under 100 nM in experiment [2] and under 100 nM in experiment [3].
Turning to `Cc1ccc(C(O)(c2nnnn2C)C(F)(F)F)cc1-c1cnc2c(N)nc(C(F)(F)F)cn12` (stereo not drawn) [Example 13, 1-(3-(8-Amino-6-(trifluoromethyl)imidazo[1,2-a]pyrazin-3-yl)-4-methylphenyl)-2,2,2-trifluoro-1-(1-methyl-1H-tetrazol-5-yl)ethan-1-ol trifluoroacetate], the values for the IC50 in experiment [1] (setting [4]), in experiment [2] and in experiment [3] were 100 to 500 nM, under 100 nM and 100 to 500 nM, respectively.

The values are drawn from patent US10738057B2, “Tertiary alcohols as PI3K-γ inhibitors” (Incyte Corporation, priority 2017, dated 2020).
